Source: paper PMC6485937 (Archives of toxicology, 2016)

Assays:
[1] = tested on: D. japonica cholinesterase (DjChE); assay: Kinetics of irreversible; assay type: biochemical, Dugesia japonica; conditions: for kr (bimolecular rate constant), rates of inhibition by carbamylating agents / kr (bimolecular rate constant), rates of inhibition by OP oxons: 1 mM ATCh, room temperature, mean± 95% confidence intervals; for Inhibition of ATCh or BTCh hydrolysis: 1 mM ATCh or BTCh
[2] = tested on: diethylphosphoryl DjChE (OP inhibited D. japonica cholinesterase); assay: Reactivation of OP inhibited DjChE by oximes or NaF; assay type: biochemical, Dugesia japonica
[3] = in mammals; ref Radić et al. 2012; cited from earlier work
[4] = tested on: human AChE; conditions: human AChE in vitro; ref Radić et al. 2013; cited from earlier work
[5] = tested on: D. japonica cholinesterase (DjChE); assay: Substrate hydrolysis by DjChE in homogenates; assay type: biochemical, Dugesia japonica; conditions: mean ± SE of 6 independent experiments

CN(C)C(=O)Oc1ccc[n+](C)c1 [Pyridostigmine, pyridostigmine]
kr (bimolecular rate constant), rates of inhibition by carbamylating agents [1]: 0.10± 0.01 × 10^5 M^−1 min^−1

chlorpyrifos oxon
kr (bimolecular rate constant), rates of inhibition by OP oxons [1]: 3.0± 0.3 × 10^5 M^−1min^−1

CNC(=O)Oc1cccc2ccccc12 [Carbaryl, carbaryl]
kr (bimolecular rate constant), rates of inhibition by carbamylating agents [1]: 0.00064± 0.00008 × 10^5 M^−1 min^−1

CCOP(=O)(OCC)Oc1cc(C)nc(C(C)C)n1 [Diazinon oxon, diazinon oxon]
kr (bimolecular rate constant), rates of inhibition by OP oxons [1]: 22±2 × 10^5 M^−1min^−1

COP(=O)(OC)OC=C(Cl)Cl [Dichlorvos, dichlorvos]
kr (bimolecular rate constant), rates of inhibition by OP oxons [1]: 9.1± 0.9 × 10^5 M^−1min^−1

pyridine-2-aldoxime [2-PAM]
mean kobs of reactivation ([2]; 4 mM 2-PAM, diazinon oxon inhibited DjChE): 0.0058 min⁻¹

O=C(C=NO)NCCN1CCCCCC1 [RS194B]
Crossing of the blood-brain barrier [3]: crosses the blood-brain barrier | Rate of reactivation relative to equimolar 2-PAM [4]: 2.5 times faster | Reactivation rate compared with 2-PAM ([2]; 4 mM oxime, diazinon oxon inhibited DjChE): significantly faster than 2-PAM

CCCC(=O)SCC[N+](C)(C)C [BTCh, butyrylthiocholine]
Km [5]: 59 ± 4 µM

CCOP(=O)(OCC)Oc1ccc([N+](=O)[O-])cc1 [Paraoxon, paraoxon]
kr (bimolecular rate constant), rates of inhibition by OP oxons [1]: 1.7± 0.1 × 10^5 M^−1min^−1

CC(=O)SCC[N+](C)(C)C [ATCh, acetylthiocholine]
Km [5]: 123 ± 6 µM

CN(C)C(=O)Oc1cccc([N+](C)(C)C)c1 [Neostigmine, neostigmine]
kr (bimolecular rate constant), rates of inhibition by carbamylating agents [1]: 1.3±0.2 × 10^5 M^−1 min^−1

[F-].[Na+] [NaF, sodium fluoride]
Reactivation rate of 10 mM NaF relative to 4 mM 2-PAM ([2]; 10 mM NaF vs 4 mM 2-PAM): four times faster | mean kobs of reactivation ([2]; 10 mM NaF, OP inhibited DjChE): 0.023 min⁻¹

CC(C)NP(=O)(NC(C)C)OP(=O)(NC(C)C)NC(C)C [iso-OMPA, Tetraisopropyl pyrophosphoramide]
Inhibition of ATCh or BTCh hydrolysis ([1]; 5 mM iso-OMPA): only slow inhibition | Inhibition of ATCh or BTCh hydrolysis ([1]; incubation with up to 1 mM iso-OMPA): unable to significantly inhibit

CCOC(=O)CC(SP(=O)(OC)OC)C(=O)OCC (stereo not shown) [Malaoxon, malaoxon]
kr (bimolecular rate constant), rates of inhibition by OP oxons [1]: 0.14± 0.01 × 10^5 M^−1min^−1

CNC(=O)Oc1ccc2c(c1)[C@]1(C)CCN(C)[C@@H]1N2C [Physostigmine, physostigmine]
kr (bimolecular rate constant), rates of inhibition by carbamylating agents [1]: 0.32± 0.02 × 10^5 M^−1 min^−1
